According to publication PMC8472287, “Betulinic Acid Decorated with Polar Groups and Blue Emitting BODIPY Dye: Synthesis, Cytotoxicity, Cell-Cycle Analysis and Anti-HIV Profiling” (Biomedicines, 2021):
pIC50: −log10 of the molar value. Where two headings read alike, the source gives them in different places.

Assays:
U2OS-Nuc cell line = experiment: Live cell imaging, pilot experiment; assay type: cell-based, human; settings: 10 µM, 1 h incubation
Method: U2OS cell line (ATCC, USA) was transduced with premade lentiviral particles (Vectalis-TaKaRa, Japan) with sequences that express fluorescent protein tag mCherry targeted to specific subcellular locations. All cell lines were prepared according to the vendor’s instructions. The U2OS-Nuc cell line was prepared by using rLV.EF1.mCherry-Nuc-9 (cat. n. 0023VCT), containing a NLS sequence that imports protein into the nucleus. The U2OS-ER cell line was transduced by rLV.EF1.mCherry-ER-9 (cat. n. 0025VCT), which contains a calreticulin signal sequence and a KDEL sequence that associates protein with the endoplasmic reticulum. The U2OS-GA cell line was transduced by rLV.EF1.mCherry-Golgi-9 (cat. n. 0022VCT), containing a human GT precursor, a protein localized in Golgi Apparatus. The U2OS-Mito cell line was prepared by using rLV.EF1.mCherry-Mito-9 (cat. n. 0024VCT), containing a mitochondrial targeting sequence.
U2OS cells with fluorescent fusion proteins (density 1.0 × 10^3 per well) were seeded into 384 CellCarrier plates (Perkin Elmer, Waltham, MA, USA) and pre-incubated for 24 h at 37 °C and 5% CO2. The attached cells were treated with tested compounds in concentration 10 µM for 1 h and subsequently rinsed with fresh media. The live-cell imaging was performed by Cell Voyager CV7000 (Yokogawa, Tokyo, Japan) spinning disc confocal microscopy system at 37 °C in a 5% CO2 atmosphere. Live cells were monitored by a 60 × water immersion objective. The fluorescent signal was excited by lasers (405 nm and 561 nm) and the emission was filtered by bandpass filters (BP 445/45 and BP 595/20). All images were post-processed, and Pearson’s and Mander’s coefficients were calculated using the JACoP plugin in Image-J software.

MRC-5 = experiment: MTS cytotoxicity assay, MRC-5; assay type: cell-based; settings: Homo sapiens, MRC5, 72 h, MRC-5 normal fibroblasts, 3-day incubation
Description: (§1) All cells (if not indicated otherwise) were purchased from the American Tissue Culture Collection (ATCC; Manassas, VA, USA). The highly chemosensitive CCRF-CEM line is derived from T lymphoblastic leukaemia, K562 represent cells of chronic myelogenous leukaemia. Colorectal adenocarcinoma HCT116 cell line and its p53 gene knockout counterpart (HCT116p53−/−, Horizon Discovery Ltd., Cambridge, UK) were used as models to assess the impact of p53 deficiency on cell line sensitivity. A549 cells are derived from lung adenocarcinoma and U2OS from human osteosarcoma. CEM-DNR and K562-Tax are well-characterized daunorubicin and paclitaxel-resistant sublines of CCRF-CEM and K562. The CEM-DNR resistant cells overexpress the P-glycoprotein and LRP protein, the K562-Tax overexpress P-glycoprotein but is losing the expression of LRP, which is present at parental K562 cell line. P-glycoprotein belongs to the ABC transporters’ family and is involved in the primary and acquired multidrug resistance phenomenon by the efflux of toxic compounds, LRP protein is involved in the lysosomal degradation. MRC-5 and BJ cell lines were used as a non-tumour control and represent human fibroblasts. The cells were maintained in Nunc/Corning 80 cm^2 plastic tissue culture flasks and cultured in cell culture medium according to ATCC or Horizon recommendations (DMEM/RPMI 1640 with 5 g/L-glucose, 2 mM glutamine, 100 U/mL penicillin, […] streptomycin, 10% fetal calf serum, and NaHCO3).
(§2) To perform the cytotoxicity MTS assay, cell suspensions were prepared and diluted according to the cell type and the expected target cell density (25,000–35,000 cells/mL) based on cell growth characteristics. Cells were added by an automatic pipettor (30 μL) into 384 well microtiter plates. All tested compounds were dissolved in 100% DMSO and four-fold dilutions of the intended test concentration were added in 0.15 μL aliquots at time zero to the microtiter plate wells by the echo-acoustic liquid handler Echo550 (Labcyte, San Jose, CA, USA). The experiments were performed in technical duplicates and at least three biological replicates. The cells were incubated with the tested compounds for 72 h at 37 °C, in a 5% CO2 atmosphere at 99% humidity. At the end of the incubation period, the cells were assayed by using the MTS test. Aliquots (5 µL) of the MTS stock solution were pipetted into each well and incubated for an additional 1–4 h. After this incubation period, the optical density (OD) was measured at 490 nm with an Envision microplate reader (Perkin Elmer, Waltham, Massachusetts, USA). Tumour cell survival (TCS) was calculated using the following equation: TCS = (ODdrug-exposed well/mean ODcontrol wells) × 100%.

CCRF-CEM = experiment: MTS cytotoxicity assay, CCRF-CEM; assay type: cell-based; settings: Homo sapiens, 72 h, 3-day incubation
Description: as §1, §2

BJ = experiment: MTS cytotoxicity assay, BJ; assay type: cell-based; settings: Homo sapiens, 72 h, BJ normal fibroblasts, 3-day incubation
Description: as §1, §2

HCT116p53−/− = experiment: MTS cytotoxicity assay, HCT116p53−/−; assay type: cell-based; settings: Homo sapiens, HCT116-p53-null, 72 h, HCT116p53−/− (null p53 gene), 3-day incubation
Description: as §1, §2

CCRF-CEM lymphoblasts [1] = experiment: BrU incorporation analysis (RNA synthesis); assay type: cell-based, human; settings: 24 h, 5 × IC50 (high concentration)
U2OS = experiment: MTS cytotoxicity assay, U2OS; assay type: cell-based; settings: Homo sapiens, 72 h, 3-day incubation
Description: as §1, §2

K562-Tax = experiment: MTS cytotoxicity assay, K562-Tax; assay type: cell-based; settings: Homo sapiens, 72 h, K562-Tax (paclitaxel-resistant), 3-day incubation
Description: as §1, §2

A549 = experiment: MTS cytotoxicity assay, A549; assay type: cell-based; settings: Homo sapiens, 72 h, 3-day incubation
Description: as §1, §2

K562 = experiment: MTS cytotoxicity assay, K562; assay type: cell-based; settings: Homo sapiens, 72 h, 3-day incubation
Description: as §1, §2

CCRF-CEM lymphoblasts [2] = experiment: BrDU incorporation analysis (DNA synthesis); assay type: cell-based, human; settings: 24 h incubation
Method: Cells were cultivated as in the method above and pulse-labelled with 10 μM 5-bromo-2-deoxyuridine (BrDU) for 30 min before collection to the test tubes. The cells were washed with cold 1 × PBS and fixed in ice-cold 70% ethanol. Before analysis, they were washed with 1 × PBS and incubated in 2M HCl for 30 min at room temperature. Following neutralization with 0.1M Na2B4O7 (borax), the cells were washed with 0.5% Tween-20 and 1% BSA in 1 × PBS. The cell pellets were stained using a primary anti-BrdU antibody (Exbio, Vestec, Czech Republic) for 30 min at room temperature and a secondary anti-mouse-FITC antibody (Sigma). The samples were then incubated with propidium iodide (0.1 mg mL^−1), treated with RNase A (0.5 mg mL^−1) for 1 h at room temperature in the dark and analysed as above.

in vitro = settings: human
CEM-DNR = experiment: MTS cytotoxicity assay, CEM-DNR; assay type: cell-based; settings: Homo sapiens, 72 h, CEM-DNR (daunorubicin resistant), 3-day incubation
Description: as §1, §2

HCT116 = experiment: MTS cytotoxicity assay, HCT116; assay type: cell-based; settings: Homo sapiens, HCT-116, 72 h, 3-day incubation
Description: as §1, §2

[3] = test system: CA-SP1 processing of HIV-1 Gag polyprotein; experiment: Western blot of released virions with anti-HIV-1 CA antibody; assay type: cell-based
[4] = test system: VSV-G pseudotyped HIV-1 particles; experiment: microbe, parasite or virus in culture; assay type: cell-based; settings: read-out: IC50i (50% infection inhibition)
[5] = Human immunodeficiency virus 1, HEK293, 48 h

Structure (SMILES)	detection in living cells (U2OS-Nuc cell line)	cytotoxic effect in the cell line panel (in words) (entire cell line panel)	pIC50 (MRC-5)	pIC50 (CCRF-CEM)	pIC50 (BJ)	pIC50 (HCT116p53−/−)	RNA synthesis by BrU (in words) (CCRF-CEM lymphoblasts [1])	pIC50 (U2OS)	pIC50 (K562-Tax)	pIC50 (A549)	pIC50 (K562)	fraction of proliferating BrDU positive CCRF-CEM cells (in words) (CCRF-CEM lymphoblasts [2])	pIC50 (in vitro)	pIC50 (CEM-DNR)	pIC50 (HCT116)	CA forms identified in released viruses (CA-SP1 processing) [3]	pIC50 [4, 5]	pIC50 [4]
NCCCNC1=C2C=CC=[N+]2[B-](F)(F)n2cccc21 [BODIPY-NH2, 8-N-(3-Aminopropyl)amino-4,4-difluoro-4-bora-3a,4a-diaza-s-indacene]	not detected																	
C=C(C)[C@@H]1CC[C@]2(C(=O)NCCCNC(=O)OC(C)(C)C)CC[C@]3(C)[C@H](CC[C@@H]4[C@@]5(C)CC[C@H](OC(=O)CC(C)(C)C(=O)O)C(C)(C)[C@@H]5CC[C@]43C)[C@@H]12 [Compound 8, 4-{[(3β)-28-({3-[(Tert-butoxycarbonyl)amino]propyl}amino)-28-oxolup-20(29)-ene-3--yl]oxy}-2,2-dimethyl-4-oxobutanoic acid]		medium cytotoxicity	4.64	5.09	4.67	4.67	stalled RNA synthesis	4.77	4.88	4.72	4.72	reduced the fraction of proliferating BrDU positive CCRF-CEM cells	4.42	5.03	4.88	not only fully processed p24 CA, but also p25 CA-SP1 protein		
C=C(C)[C@@H]1CC[C@]2(C(=O)NCCCNC3=C4C=CC=[N+]4[B-](F)(F)n4cccc43)CC[C@]3(C)[C@H](CC[C@@H]4[C@@]5(C)CC[C@H](OC(=O)CC(C)(C)C(=O)O)C(C)(C)[C@@H]5CC[C@]43C)[C@@H]12 [Compound 10, 4-{[(3β)-28-{[N-(4,4-Difluoro-4-bora-3a,4a-diaza-s-indacene-8-yl)-3-aminopropyl]amino}-28-oxolup-20(29)-ene-3-yl]oxy}-2,2-dimethyl-4-oxobutanoic acid]		medium cytotoxicity	4.85	5.53	4.81	5.06	stalled RNA synthesis	4.91	4.91	4.87	4.63	reduced the fraction of proliferating BrDU positive CCRF-CEM cells	< 4.40	5.15	5.10	not only fully processed p24 CA, but also p25 CA-SP1 protein	> 5.00	5.08
C=C(C)[C@@H]1CC[C@]2(C(=O)N3CCN(CCNC4=C5C=CC=[N+]5[B-](F)(F)n5cccc54)CC3)CC[C@]3(C)[C@H](CC[C@@H]4[C@@]5(C)CC[C@H](OC(=O)CC(C)(C)C(=O)O)C(C)(C)[C@@H]5CC[C@]43C)[C@@H]12 [Compound 18, 4-{[(3β)-28-{4-[N-(4,4-Difluoro-4-bora-3a,4a-diaza-s-indacene-8-yl)-2-aminoethyl]piperazine-1-yl}-28-oxolup-20(29)-ene-3-yl]oxy}-2,2-dimethyl-4-oxobutanoic acid]		inactive	< 4.30	5.06	< 4.30	4.34	increased the percentage of BrU positive cells	< 4.30	< 4.30	4.32	< 4.30	increased the percentage of cells incorporating BrDU	< 4.40	< 4.30	4.51	not only fully processed p24 CA, but also p25 CA-SP1 protein	> 5.00	5.15
O=C(O)CCNC1=C2C=CC=[N+]2[B-](F)(F)n2cccc21 [BODIPY-CO2H, 8-N-(β-Alanyl)amino-4,4-difluoro-4-bora-3a,4a-diaza-s-indacene]	not detected																	
